Patent publication US8906913B2, “Azabicyclohexanes” (Panacea Biotec Limited, priority 2009, dated 2014)
Converted amounts (≈) assume the structure as drawn.

Columns and labels:
Assay in all cases: In-vitro antibacterial activity, broth microdilution MIC
Format in all cases: cell-based
[1] = tested on: Enterococcus faecalis ATCC 29212 Vancomycin Sensitive; conditions: ATCC29212, Table 7, E. faecalis vancomycin sensitive, broth microdilution, 35±2° C., 16-20 h, read-out: MIC ATCC 29212
Method: (§1) The in-vitro antibacterial activity of the compounds of the present invention (as described in Table 7) was determined by a broth microdilution following the guidelines prescribed by the Clinical and Laboratory Standards Institute (CLSI). This method is described in the CLSI Document M7-A7, Vol. 26, No. 2, “Methods for Dilution Antimicrobial Susceptibility Test for Bacteria that Grow Aerobically; Approved Standard-Seventh Edition”, which is incorporated herein by reference. Minimum Inhibitory Concentration (MIC) is defined as the minimum concentration of test compound which inhibits the growth of bacteria as visible or seen by the naked eye. This test can also be carried out by agar dilution method.
(§2) The compounds of the present invention were tested against a panel of standard microorganisms obtained from ATCC (American type culture collection). Linezolid was used as comparator in all the tests.
(§3) In the broth microdilution method, the compound was dissolved in dimethylsulfoxide and two fold serial dilutions were carried out in 96 well microtitre plates. The inoculum was prepared by adjusting the turbidity of actively growing broth culture and added to the wells to obtain a final bacterial count of ˜2-5×10^4 CFU/well. The microtitre plates were incubated at 35±2° C. for 16-20 h and then read visually.

[2] = tested on: Staphylococcus aureus ATCC 33591 MRSA (Methicillin resistant); conditions: Table 7, S. aureus MRSA, broth microdilution, 35±2° C., 16-20 h, read-out: MIC ATCC 33591
Method: as §1, §2, §3

[3] = tested on: Enterococcus faecium ATCC 700221 VRE (Vancomycin resistant E. faecium); conditions: Table 7, broth microdilution, 35±2° C., 16-20 h, read-out: MIC ATTC 700221
Method: as §1, §2, §3

[4] = tested on: Staphylococcus aureus ATCC 29213 MSSA (Methicillin sensitive); conditions: Table 7, S. aureus MSSA, broth microdilution, 35±2° C., 16-20 h, read-out: MIC ATCC 29213
Method: as §1, §2, §3

Row | Compound | MIC [1] | MIC [2] | MIC [3] | MIC [4]
1 | COC(=O)NC[C@H]1CN(c2ccc(C34CC3CN(C(C)=O)C4)cc2)C(=O)O1 (stereo partly shown) | 2 µg/mL (≈ 5.36 µM) | 1 µg/mL (≈ 2.68 µM) | 1 µg/mL (≈ 2.68 µM) | 2 µg/mL (≈ 5.36 µM)
2 | CC(=O)NC[C@H]1CN(c2ccc(C34CC3CN(C(=O)c3cn5cccnc5n3)C4)cc2)C(=O)O1 (stereo partly shown) | 1 µg/mL (≈ 2.17 µM) | 2 µg/mL (≈ 4.34 µM) | 1 µg/mL (≈ 2.17 µM) | 2 µg/mL (≈ 4.34 µM)
3 | CC(=O)NC[C@H]1CN(c2ccc(C34CC3CN(C(=O)OC(C)C)C4)cc2)C(=O)O1 (stereo partly shown) | 2 µg/mL (≈ 4.98 µM) | 1 µg/mL (≈ 2.49 µM) | 1 µg/mL (≈ 2.49 µM) | 2 µg/mL (≈ 4.98 µM)
4 | COC(=O)NC[C@H]1CN(c2ccc(C34CC3CN(C(=O)OC)C4)cc2)C(=O)O1 (stereo partly shown) | 1 µg/mL (≈ 2.57 µM) | 1 µg/mL (≈ 2.57 µM) | 1 µg/mL (≈ 2.57 µM) | 1 µg/mL (≈ 2.57 µM)
5 | CC(=O)NC[C@H]1CN(c2ccc(C34CC3CN(C(=O)N(C)C)C4)cc2)C(=O)O1 (stereo partly shown) | 0.5 µg/mL (≈ 1.29 µM) | 1 µg/mL (≈ 2.59 µM) | 0.25 µg/mL (≈ 0.647 µM) | 4 µg/mL (≈ 10.4 µM)
6 | CCOC(=O)OCC(=O)N1CC2CC2(c2ccc(N3C[C@H](CNC(C)=O)OC3=O)cc2)C1 (stereo partly shown) | 0.5 µg/mL (≈ 1.12 µM) | 1 µg/mL (≈ 2.24 µM) | 0.5 µg/mL (≈ 1.12 µM) | 2 µg/mL (≈ 4.49 µM)
7 | COC(=O)N1CC2CC2(c2ccc(N3C[C@H](CNC(C)=O)OC3=O)cc2F)C1 (stereo partly shown) | 0.5 µg/mL (≈ 1.28 µM) | 0.5 µg/mL (≈ 1.28 µM) | 0.5 µg/mL (≈ 1.28 µM) | 1 µg/mL (≈ 2.55 µM)
8 | COC(=O)N1CC2CC2(c2ccc(N3C[C@H](CNC(C)=O)OC3=O)cc2)C1 (stereo partly shown) | 2 µg/mL (≈ 5.36 µM) | 1 µg/mL (≈ 2.68 µM) | 1 µg/mL (≈ 2.68 µM) | 2 µg/mL (≈ 5.36 µM)
9 | CC(=O)N1CC2CC2(c2ccc(N3C[C@H](Cn4ccnn4)OC3=O)cc2)C1 (stereo partly shown) | 2 µg/mL (≈ 5.44 µM) | 2 µg/mL (≈ 5.44 µM) | 1 µg/mL (≈ 2.72 µM) | 1 µg/mL (≈ 2.72 µM)
10 | COC(=O)N1CC2CC2(c2ccc(N3C[C@H](Cn4ccnn4)OC3=O)cc2)C1 (stereo partly shown) | 2 µg/mL (≈ 5.22 µM) | 0.5 µg/mL (≈ 1.3 µM) | 1 µg/mL (≈ 2.61 µM) | 1 µg/mL (≈ 2.61 µM)
11 | CC(=O)NC[C@H]1CN(c2ccc(C34CC3CN(C(=O)C(F)(F)F)C4)cc2)C(=O)O1 (stereo partly shown) | 2 µg/mL (≈ 4.86 µM) | 2 µg/mL (≈ 4.86 µM) | 1 µg/mL (≈ 2.43 µM) | 2 µg/mL (≈ 4.86 µM)
12 | CC(=O)NCC(=O)N1CC2CC2(c2ccc(N3C[C@H](CNC(C)=O)OC3=O)cc2)C1 (stereo partly shown) | 2 µg/mL (≈ 4.83 µM) | 4 µg/mL (≈ 9.65 µM) | 4 µg/mL (≈ 9.65 µM) | 4 µg/mL (≈ 9.65 µM)
13 | COC(=O)N1C[C@@H]2C[C@]2(c2ccc(N3C[C@H](CNC(C)=O)OC3=O)cc2)C1 | 1 µg/mL (≈ 2.68 µM) | 0.5 µg/mL (≈ 1.34 µM) | 0.5 µg/mL (≈ 1.34 µM) | 1 µg/mL (≈ 2.68 µM)
14 | COC(=O)N1C[C@H]2C[C@@]2(c2ccc(N3C[C@H](CNC(C)=O)OC3=O)cc2)C1 | 1 µg/mL (≈ 2.68 µM) | 1 µg/mL (≈ 2.68 µM) | 1 µg/mL (≈ 2.68 µM) | 2 µg/mL (≈ 5.36 µM)
15 | CC(=O)NC[C@H]1CN(c2ccc(C34CC3CN(C(C)=O)C4)c(F)c2)C(=O)O1 (stereo partly shown) | 1 µg/mL (≈ 2.66 µM) | 0.5 µg/mL (≈ 1.33 µM) | 0.5 µg/mL (≈ 1.33 µM) | 1 µg/mL (≈ 2.66 µM)

The next lines start with the values.

Row | MIC [1] | MIC [2] | MIC [3] | MIC [4] | Compound
16 | 2 µg/mL (≈ 4.76 µM) | 1 µg/mL (≈ 2.38 µM) | 2 µg/mL (≈ 4.76 µM) | 2 µg/mL (≈ 4.76 µM) | CC(=O)NC[C@H]1CN(c2ccc(C34CC3CN(C(=O)c3cccnc3)C4)cc2)C(=O)O1 (stereo partly shown)
17 | 2 µg/mL (≈ 5.08 µM) | 1 µg/mL (≈ 2.54 µM) | 1 µg/mL (≈ 2.54 µM) | 2 µg/mL (≈ 5.08 µM) | CC(=O)NC[C@H]1CN(c2ccc(C34CC3CN(S(C)(=O)=O)C4)cc2)C(=O)O1 (stereo partly shown)
18 | 1 µg/mL (≈ 2.23 µM) | 1 µg/mL (≈ 2.23 µM) | 0.5 µg/mL (≈ 1.12 µM) | 1 µg/mL (≈ 2.23 µM) | CC(=O)NC[C@H]1CN(c2ccc(C34CC3CN(C(=O)CCc3ccccc3)C4)cc2)C(=O)O1 (stereo partly shown)
19 | 0.5 µg/mL (≈ 1.34 µM) | 0.5 µg/mL (≈ 1.34 µM) | 0.5 µg/mL (≈ 1.34 µM) | 0.5 µg/mL (≈ 1.34 µM) | CC(=O)NC[C@H]1CN(c2ccc(C34CC3CN(C(=O)CO)C4)cc2)C(=O)O1 (stereo partly shown)
20 | 0.5 µg/mL (≈ 1.27 µM) | 0.5 µg/mL (≈ 1.27 µM) | 1 µg/mL (≈ 2.55 µM) | 1 µg/mL (≈ 2.55 µM) | CC(=O)NC[C@H]1CN(c2ccc(C34CC3CN(c3ccccn3)C4)cc2)C(=O)O1 (stereo partly shown)
21 | 1 µg/mL (≈ 2.94 µM) | 0.5 µg/mL (≈ 1.47 µM) | 0.5 µg/mL (≈ 1.47 µM) | 0.5 µg/mL (≈ 1.47 µM) | CC(=O)NC[C@H]1CN(c2ccc(C34CC3CN(C#N)C4)cc2)C(=O)O1 (stereo partly shown)
22 | 8 µg/mL (≈ 19.7 µM) | 4 µg/mL (≈ 9.84 µM) | 2 µg/mL (≈ 4.92 µM) | 4 µg/mL (≈ 9.84 µM) | CC(=O)NC[C@H]1CN(c2ccc(C34CC3CN(Cc3cccnc3)C4)cc2)C(=O)O1 (stereo partly shown)
23 | 1 µg/mL (≈ 2.29 µM) | 1 µg/mL (≈ 2.29 µM) | 0.5 µg/mL (≈ 1.14 µM) | 1 µg/mL (≈ 2.29 µM) | CC(=O)NC[C@H]1CN(c2ccc(C34CC3CN(C(=O)C(=O)c3ccco3)C4)cc2)C(=O)O1 (stereo partly shown)
24 | 0.125 µg/mL (≈ 0.314 µM) | 0.25 µg/mL (≈ 0.627 µM) | 0.5 µg/mL (≈ 1.25 µM) | 0.5 µg/mL (≈ 1.25 µM) | CC(=O)NC[C@H]1CN(c2ccc(C34CC3CN(c3nccs3)C4)cc2)C(=O)O1 (stereo partly shown)
25 | 1 µg/mL (≈ 2.44 µM) | 0.5 µg/mL (≈ 1.22 µM) | 0.5 µg/mL (≈ 1.22 µM) | 1 µg/mL (≈ 2.44 µM) | CC(=O)NC[C@H]1CN(c2ccc(C34CC3CN(c3ccc(F)nc3)C4)cc2)C(=O)O1 (stereo partly shown)
